Laboratory results as given in PubChem BioAssay AID2060889 (Molecular Pharmacology Branch, DTP, NCI, 2025).

Test system: LG0567-F671-PDC complex spheroids viability
Assay: Anticancer human tumor LG0567-F671-PDC patient-derived lung adenocarcinoma cell line growth inhibition [RAS]
Conditions: for IC50: curve of first compound; for viability, T/C: stronger effect = lower value
Summary of the method: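 Tumour cells grown as complex spheroids with HUVEC endothelial cells and mesenchymal stem cells, treated with RAS pathway inhibitor combinations. Each agent spans half-log steps from near clinical Cmax, or 10 microM where Cmax is unknown.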

[1] = second compound 0.000949 µM, first compound 0.0316 µM
[2] = second compound 0.000949 µM, first compound 0.1 µM
[3] = second compound 0.003 µM, first compound 0.0316 µM
[4] = second compound 0.003 µM, first compound 0.1 µM
[5] = second compound 0.00949 µM, first compound 0.0316 µM
[6] = second compound 0.00949 µM, first compound 0.1 µM
[7] = second compound 0.03 µM, first compound 0.0316 µM
[8] = second compound 0.03 µM, first compound 0.1 µM
[9] = second compound 0.0949 µM, first compound 0.0316 µM
[10] = second compound 0.0949 µM, first compound 0.1 µM
[11] = second compound 0.3 µM, first compound 0.0316 µM
[12] = second compound 0.3 µM, first compound 0.1 µM
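Note: spheroids exposed to compound for seven days before readout.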
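Throughout, for IC50: luminescence signal used as a proxy for viable cells.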

SMILES: CC(C)n1nc(-c2ccc3oc(N)nc3c2)c2c(N)ncnc21 + CCn1c(-c2cc(N3CCN(C)CC3)cnc2C(C)OC)c2c3cc(ccc31)-c1csc(n1)CC(NC(=O)C1CC1C)C(=O)N1CCCC(N1)C(=O)OCC(C)(C)C2
- IC50 (second compound 0.000949 µM): < 0.316 nM
- IC50 (second compound 0.003 µM): < 0.316 nM
- IC50 (second compound 0.00949 µM): < 0.316 nM
- IC50 (second compound 0.03 µM): < 0.316 nM
- IC50 (second compound 0.0949 µM): < 0.316 nM
- IC50 (second compound 0.3 µM): < 0.316 nM
- viability, T/C (second compound 0.000949 µM, first compound 0.000316 µM): 24.8%
- viability, T/C (second compound 0.000949 µM, first compound 0.001 µM): 23.1%
- viability, T/C (second compound 0.000949 µM, first compound 0.00316 µM): 18.8%
- viability, T/C (second compound 0.000949 µM, first compound 0.01 µM): 15.1%
- viability, T/C [1]: 11.8%
- viability, T/C [2]: 7.87%
- viability, T/C (second compound 0.003 µM, first compound 0.000316 µM): 12.8%
- viability, T/C (second compound 0.003 µM, first compound 0.001 µM): 11.2%
- viability, T/C (second compound 0.003 µM, first compound 0.00316 µM): 8.44%
- viability, T/C (second compound 0.003 µM, first compound 0.01 µM): 6.54%
- viability, T/C [3]: 4.49%
- viability, T/C [4]: 3.31%
- viability, T/C (second compound 0.00949 µM, first compound 0.000316 µM): 5.79%
- viability, T/C (second compound 0.00949 µM, first compound 0.001 µM): 5.54%
- viability, T/C (second compound 0.00949 µM, first compound 0.00316 µM): 4.34%
- viability, T/C (second compound 0.00949 µM, first compound 0.01 µM): 5.27%
- viability, T/C [5]: 2.11%
- viability, T/C [6]: 1.59%
- viability, T/C (second compound 0.03 µM, first compound 0.000316 µM): 3.45%
- viability, T/C (second compound 0.03 µM, first compound 0.001 µM): 3.53%
- viability, T/C (second compound 0.03 µM, first compound 0.00316 µM): 2.88%
- viability, T/C (second compound 0.03 µM, first compound 0.01 µM): 2%
- viability, T/C [7]: 1.3%
- viability, T/C [8]: 1.03%
- viability, T/C (second compound 0.0949 µM, first compound 0.000316 µM): 3.67%
- viability, T/C (second compound 0.0949 µM, first compound 0.001 µM): 2.67%
- viability, T/C (second compound 0.0949 µM, first compound 0.00316 µM): 2.18%
- viability, T/C (second compound 0.0949 µM, first compound 0.01 µM): 1.68%
- viability, T/C [9]: 1.09%
- viability, T/C [10]: 0.8%
- viability, T/C (second compound 0.3 µM, first compound 0.000316 µM): 2.77%
- viability, T/C (second compound 0.3 µM, first compound 0.001 µM): 2.43%
- viability, T/C (second compound 0.3 µM, first compound 0.00316 µM): 1.81%
- viability, T/C (second compound 0.3 µM, first compound 0.01 µM): 1.5%
- viability, T/C [11]: 1.12%
- viability, T/C [12]: 0.62%

SMILES: C[C@@H](NC(=O)c1ncnc(N)c1Cl)c1ncc(C(=O)Nc2cc(C(F)(F)F)c(Cl)cn2)s1 + CCn1c(-c2cc(N3CCN(C)CC3)cnc2C(C)OC)c2c3cc(ccc31)-c1csc(n1)CC(NC(=O)C1CC1C)C(=O)N1CCCC(N1)C(=O)OCC(C)(C)C2
- IC50 (second compound 0.000949 µM): < 31.6 nM
- IC50 (second compound 0.003 µM): < 31.6 nM
- IC50 (second compound 0.00949 µM): < 31.6 nM
- IC50 (second compound 0.03 µM): < 31.6 nM
- IC50 (second compound 0.0949 µM): < 31.6 nM
- IC50 (second compound 0.3 µM): < 31.6 nM
- viability, T/C [1]: 30.9%
- viability, T/C [2]: 37.5%
- viability, T/C (second compound 0.000949 µM, first compound 0.316 µM): 43.4%
- viability, T/C (second compound 0.000949 µM, first compound 1 µM): 39.1%
- viability, T/C (second compound 0.000949 µM, first compound 3.16 µM): 40.3%
- viability, T/C (second compound 0.000949 µM, first compound 10 µM): 35.3%
- viability, T/C [3]: 19.7%
- viability, T/C [4]: 18.3%
- viability, T/C (second compound 0.003 µM, first compound 0.316 µM): 19.9%
- viability, T/C (second compound 0.003 µM, first compound 1 µM): 22.7%
- viability, T/C (second compound 0.003 µM, first compound 3.16 µM): 24.5%
- viability, T/C (second compound 0.003 µM, first compound 10 µM): 26.4%
- viability, T/C [5]: 7.34%
- viability, T/C [6]: 8.73%
- viability, T/C (second compound 0.00949 µM, first compound 0.316 µM): 10.4%
- viability, T/C (second compound 0.00949 µM, first compound 1 µM): 11.1%
- viability, T/C (second compound 0.00949 µM, first compound 3.16 µM): 13.5%
- viability, T/C (second compound 0.00949 µM, first compound 10 µM): 12.6%
- viability, T/C [7]: 5.32%
- viability, T/C [8]: 5.26%
- viability, T/C (second compound 0.03 µM, first compound 0.316 µM): 5.82%
- viability, T/C (second compound 0.03 µM, first compound 1 µM): 8.15%
- viability, T/C (second compound 0.03 µM, first compound 3.16 µM): 8.79%
- viability, T/C (second compound 0.03 µM, first compound 10 µM): 9.05%
- viability, T/C [9]: 4.43%
- viability, T/C [10]: 3.63%
- viability, T/C (second compound 0.0949 µM, first compound 0.316 µM): 3.94%
- viability, T/C (second compound 0.0949 µM, first compound 1 µM): 5.56%
- viability, T/C (second compound 0.0949 µM, first compound 3.16 µM): 5.9%
- viability, T/C (second compound 0.0949 µM, first compound 10 µM): 7.14%
- viability, T/C [11]: 3.16%
- viability, T/C [12]: 4.04%
- viability, T/C (second compound 0.3 µM, first compound 0.316 µM): 3.86%
- viability, T/C (second compound 0.3 µM, first compound 1 µM): 4.35%
- viability, T/C (second compound 0.3 µM, first compound 3.16 µM): 5.96%
- viability, T/C (second compound 0.3 µM, first compound 10 µM): 5.33%
